Measured values reported in PubChem BioAssay (NCI).
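The concentration for 50% growth inhibition is given as GI50. TGI: total growth inhibition.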

Legend:
Test in all cases: NCI tumour cell line growth inhibition, 384-well format
SK-OV-3 ovarian = system: SK-OV-3 ovarian
MDA-MB-435 melanoma = system: MDA-MB-435 melanoma
NCI-H23 lung = system: NCI-H23 lung
TK-10 renal = system: TK-10 renal
M14 melanoma = system: M14 melanoma
HCT-15 colon = system: HCT-15 colon
HT29 colon = system: HT29 colon
SK-MEL-28 melanoma = system: SK-MEL-28 melanoma
MDA-MB-468 breast = system: MDA-MB-468 breast
OVCAR-3 ovarian = system: OVCAR-3 ovarian
UACC-62 melanoma = system: UACC-62 melanoma
CCRF-CEM leukemia = system: CCRF-CEM leukemia
NCI-H460 NSCLC = system: NCI-H460 NSCLC
UACC-257 melanoma = system: UACC-257 melanoma
SF-539 CNS = system: SF-539 CNS
HCT-116 colon = system: HCT-116 colon
SF-295 CNS = system: SF-295 CNS
K-562 leukemia = system: K-562 leukemia
SK-MEL-2 melanoma = system: SK-MEL-2 melanoma
MCF7 breast = system: MCF7 breast
SW-620 colon = system: SW-620 colon
ACHN renal = system: ACHN renal
HOP-62 NSCLC = system: HOP-62 NSCLC
BT-549 breast = system: BT-549 breast
LOX IMVI melanoma = system: LOX IMVI melanoma
RXF 393 renal = system: RXF 393 renal
NCI-H522 lung = system: NCI-H522 lung
HCC-2998 colon = system: HCC-2998 colon
OVCAR-8 ovarian = system: OVCAR-8 ovarian
SR leukemia = system: SR leukemia
KM12 colon = system: KM12 colon
UO-31 renal = system: UO-31 renal
SNB-19 CNS = system: SNB-19 CNS
IGROV1 ovarian = system: IGROV1 ovarian
U251 glioblastoma = system: U251 glioblastoma
SN12C renal = system: SN12C renal
HL-60(TB) leukemia = system: HL-60(TB) leukemia
MDA-MB-231 breast = system: MDA-MB-231 breast
MALME-3M melanoma = system: MALME-3M melanoma
COLO 205 colon = system: COLO 205 colon
A549 NSCLC = system: A549 NSCLC
MOLT-4 leukemia = system: MOLT-4 leukemia
786-0 renal = system: 786-0 renal
SK-MEL-5 melanoma = system: SK-MEL-5 melanoma
NCI-H322M lung = system: NCI-H322M lung
PC-3 prostate = system: PC-3 prostate
RPMI-8226 leukemia = system: RPMI-8226 leukemia
SF-268 CNS = system: SF-268 CNS

CN(C)C/C=C/C(=O)Nc1ccc(C(=O)N2CCC[C@@H](Nc3ncc(Cl)c(-c4c[nH]c5ccccc45)n3)C2)cc1
GI50 (SK-OV-3 ovarian): 38.6 nM
TGI (SK-OV-3 ovarian): 352 nM
GI50 (MDA-MB-435 melanoma): 27 nM
TGI (MDA-MB-435 melanoma): 90.4 nM
GI50 (NCI-H23 lung): 27.4 nM
TGI (NCI-H23 lung): 117 nM
GI50 (TK-10 renal): 389 nM
TGI (TK-10 renal): 14700 nM
GI50 (M14 melanoma): 106 nM
TGI (M14 melanoma): 279 nM
GI50 (HCT-15 colon): 3050 nM
TGI (HCT-15 colon): 9820 nM
GI50 (HT29 colon): 165 nM
TGI (HT29 colon): 478 nM
GI50 (SK-MEL-28 melanoma): 20.8 nM
TGI (SK-MEL-28 melanoma): 48 nM
GI50 (MDA-MB-468 breast): 17.7 nM
TGI (MDA-MB-468 breast): 33.7 nM
GI50 (OVCAR-3 ovarian): 18 nM
TGI (OVCAR-3 ovarian): 38.2 nM
GI50 (UACC-62 melanoma): 92.7 nM
TGI (UACC-62 melanoma): 321 nM
GI50 (CCRF-CEM leukemia): 28 nM
TGI (CCRF-CEM leukemia): 74.5 nM
GI50 (NCI-H460 NSCLC): 184 nM
TGI (NCI-H460 NSCLC): 424 nM
GI50 (UACC-257 melanoma): 41.9 nM
TGI (UACC-257 melanoma): 197 nM
GI50 (SF-539 CNS): 20.1 nM
TGI (SF-539 CNS): 43.6 nM
GI50 (HCT-116 colon): 31 nM
TGI (HCT-116 colon): 1170 nM
GI50 (SF-295 CNS): 274 nM
TGI (SF-295 CNS): 767 nM
GI50 (K-562 leukemia): 39.7 nM
TGI (K-562 leukemia): 840 nM
GI50 (SK-MEL-2 melanoma): 19.9 nM
TGI (SK-MEL-2 melanoma): 48.8 nM
GI50 (MCF7 breast): 26.6 nM
TGI (MCF7 breast): 1290 nM
GI50 (SW-620 colon): 71.4 nM
TGI (SW-620 colon): 410 nM
GI50 (ACHN renal): 1890 nM
TGI (ACHN renal): 11200 nM
GI50 (HOP-62 NSCLC): 159 nM
TGI (HOP-62 NSCLC): 581 nM
GI50 (BT-549 breast): 16.4 nM
TGI (BT-549 breast): 37.6 nM
GI50 (LOX IMVI melanoma): 25.6 nM
TGI (LOX IMVI melanoma): 48 nM
GI50 (RXF 393 renal): 24.5 nM
TGI (RXF 393 renal): 77.7 nM
GI50 (NCI-H522 lung): 19 nM
TGI (NCI-H522 lung): 36.3 nM
GI50 (HCC-2998 colon): 17.8 nM
TGI (HCC-2998 colon): 38.1 nM
GI50 (OVCAR-8 ovarian): 149 nM
TGI (OVCAR-8 ovarian): 398 nM
GI50 (SR leukemia): 16.4 nM
TGI (SR leukemia): 30.3 nM
GI50 (KM12 colon): 34.7 nM
TGI (KM12 colon): 160 nM
GI50 (UO-31 renal): 2190 nM
TGI (UO-31 renal): 5380 nM
GI50 (SNB-19 CNS): 33.3 nM
TGI (SNB-19 CNS): 1420 nM
GI50 (IGROV1 ovarian): 22.9 nM
TGI (IGROV1 ovarian): 69.5 nM
GI50 (U251 glioblastoma): 48.2 nM
TGI (U251 glioblastoma): 399 nM
GI50 (SN12C renal): 46.8 nM
TGI (SN12C renal): 222 nM
GI50 (HL-60(TB) leukemia): 22.7 nM
TGI (HL-60(TB) leukemia): 37.4 nM
GI50 (MDA-MB-231 breast): 25.4 nM
TGI (MDA-MB-231 breast): 72.3 nM
GI50 (MALME-3M melanoma): 19.6 nM
TGI (MALME-3M melanoma): 39.4 nM
GI50 (COLO 205 colon): 19 nM
TGI (COLO 205 colon): 42.9 nM
GI50 (A549 NSCLC): 294 nM
TGI (A549 NSCLC): 967 nM
GI50 (MOLT-4 leukemia): 21.6 nM
TGI (MOLT-4 leukemia): 42.9 nM
GI50 ([…]-0 renal): 241 nM
TGI (786-0 renal): 683 nM
GI50 (SK-MEL-5 melanoma): 28.3 nM
TGI (SK-MEL-5 melanoma): 135 nM
GI50 (NCI-H322M lung): 27.4 nM
TGI (NCI-H322M lung): 67.8 nM
GI50 (PC-3 prostate): 46.3 nM
TGI (PC-3 prostate): 371 nM
GI50 (RPMI-8226 leukemia): 151 nM
TGI (RPMI-8226 leukemia): 285 nM
GI50 (SF-268 CNS): 20.5 nM
TGI (SF-268 CNS): 44.7 nM
